According to publication PMC8101618, “Comparable Initial Engagement of Intracellular Signaling Pathways by Parathyroid Hormone Receptor Ligands Teriparatide, Abaloparatide, and Long‐Acting PTH” (JBMR Plus, 2021):
Where no end group is shown, it is not given here. TMR = tetramethyl-rhodamine

Assays:
hPTH1R = assay: intracellular calcium (Fura2-AM) in HEK293/hPTH1R/glosensor (GP-2.3) cells; type: cell-based, human; conditions: 100nM; HEK293 cells stably expressing hPTH1R (GP-2.3); Fura2-AM ratiometric fluorescence 340/380 nm; 150 s after ligand addition; repeated two times
Description: Signaling via the iCa^++ pathway was assessed in stably transfected HEK‐HEK293/hPTH1R/glosensor (GP‐2.3) cells using the calcium‐sensitive fluorophore Fura2‐AM (Invitrogen, Life Tech. Grand Island, NY, USA).^( ^32 ^) Confluent cells in a black, 96‐well plate were preloaded with Fura2‐AM (5μM) for 45 min and then unloaded in buffer for 30 min. The plate was then processed using a Perkin Elmer Envision plate reader (Perkin Elmer, Waltham, MA, USA) to monitor fluorescence emission at a wavelength (λem) of 515 nm, upon sequential excitation at wavelengths (λex) of 340 nm and 380 nm. Data were recorded at 2‐s intervals for 10 s prior to, and for 150 s after ligand addition. The data at each time point were calculated as the ratio of the fluorescence signal obtained with excitation at 340 nm to that obtained with excitation at 380 nm.
(§1) First, we assessed the ability of distinct PTH1R peptide ligands (Fig. 1A ) to induce Gαq/PKC‐dependent increases in intracellular calcium in HEK293 cells stably expressing hPTH1R (GP‐2.3 cells). For this, cells were preloaded with the calcium indicator dye Fura2‐AM, and then treated with different PTH ligands at a concentration of 100nM. Intracellular calcium fluxes were measured by ratiometric fluorescence (excitation = 340 nm and 380 nm, emission = […]) over time.

[1] = test system: Gαq/phospholipase signaling; conditions: cited from earlier work
Description: as §1

ratPTH1R = assay: internalization of TMR-labeled ligand-PTH1R complexes in GR-35 cells; type: cell-based, rat; conditions: TMR-labeled ligands (TMR at Lys13), 15 min, 21°C, HEK293 ratPTH1R/glosensor GR-35 cells, epifluorescent microscopy; 100nM (methods) or 10nM (results); repeated two times
Description: Internalization of ligand‐PTH1R complexes was assessed by fluorescent microscopy in stably transfected HEK293/ratPTH1R/glosensor (GR‐35) cells. The cells were cultured on glass coverslips in 24‐well plates to ~75% of confluency, and then treated with a tetramethylrhodamine (TMR)‐labeled PTH analog (100nM, TMR attached to Lys13) in HBSS containing 0.1% BSA (HB buffer) for 15 min at 21°C. The cells were then rinsed thrice with HB buffer, fixed with 4% formalin for 5 min, mounted with vector‐shield containing 4,6‐diamidino‐2‐phenylindole (DAPI) on a glass microscope slide, and viewed and digitally imaged using a Nikon epifluorescent microscope (Nikon, Tokyo, Japan) equipped with a charge‐coupled device (CCD) camera configured with SPOT imaging software (SPOT Imaging, Sterling Heights, MI, USA).
Next, we asked whether PTH analogs might have different effects on PTH1R activation‐dependent internalization. For this, HEK293 cells stably expressing a rat PTH1R cDNA (GR‐35 cells) were treated with tetramethyl‐rhodamine‐labeled versions of hPTH (1‐34), PTHrP, and abaloparatide (the TMR fluorophore is attached at the K13 position of each peptide). Cells were treated for 15 min at room temperature (21°C) at peptide doses of 10nM. After excess unbound peptide was washed away, cells were examined by epifluorescent microscopy.

[2] = biological target: T1, PTH1R (endogenous, Ocy454 cells) (Mus musculus, UniProt P41593); assay: intracellular cAMP in Ocy454 cells; type: cell-based, murine; conditions: IBMX (2mM), 30 min, room temperature, radioimmunoassay, repeated three times, Fig 3A, read-out: cAMP generation EC50
T1 construct: effects of distinct PTH1R ligands on endogenous receptors in Ocy454 cells; endogenous in cells; host or cells: Ocy454 cells (murine osteocyte-like line, subclone 6-9)
T1 sequence (P41593 27-591): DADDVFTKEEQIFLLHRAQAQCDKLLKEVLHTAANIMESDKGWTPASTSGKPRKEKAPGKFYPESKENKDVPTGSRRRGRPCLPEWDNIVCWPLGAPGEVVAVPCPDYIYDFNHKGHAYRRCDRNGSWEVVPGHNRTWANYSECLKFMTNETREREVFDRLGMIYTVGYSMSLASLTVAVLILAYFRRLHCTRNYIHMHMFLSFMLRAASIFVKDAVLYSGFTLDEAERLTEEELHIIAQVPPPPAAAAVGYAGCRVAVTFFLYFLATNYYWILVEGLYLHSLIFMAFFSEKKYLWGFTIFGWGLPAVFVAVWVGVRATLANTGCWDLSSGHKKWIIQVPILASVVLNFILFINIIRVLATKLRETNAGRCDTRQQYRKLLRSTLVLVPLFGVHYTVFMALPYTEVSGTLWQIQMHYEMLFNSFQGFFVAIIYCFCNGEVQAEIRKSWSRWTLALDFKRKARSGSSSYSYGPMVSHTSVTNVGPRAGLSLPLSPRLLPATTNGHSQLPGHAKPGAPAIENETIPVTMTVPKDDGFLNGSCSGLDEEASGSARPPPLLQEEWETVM
Description: Confluent Ocy454 cells in 96‐well plates were treated with a abaloparatide or a PTH analog at varying concentrations in a buffer of Hanks balanced salts solution (HBSS) containing 0.1% BSA and 3‐isobutyl‐1‐methylxanthine (IBMX) (2mM) for 30 min at room temperature. The buffer was then removed and the cells were lysed by placing the plate on a bed of powdered dry ice and adding 50 μL of 50mM HCl. After freezing and thawing, the lysates were diluted in water and then assessed for cAMP content by radioimmunoassay.
First, we assessed the effects of different PTH analogs on cAMP generation. For this, cells were treated with different concentrations of peptides in the presence of IBMX for 30 min at room temperature, followed by radioimmunoassay for cAMP.

Compound | ligand-PTH1R internalization (ratPTH1R) | EC50 [2] [nM] | further results
Trp1‐PTH (1‐34): a PTH analog defective at activating Gαq/phospholipase signaling (WVSEIQLMHNLGKHLNSMERVEWLRKKLQDVHNF; Parathyroid hormone; UniProt P01270 32-65, looked up, variant S1W) |  |  | intracellular calcium release (hPTH1R): does not stimulate intracellular calcium; activation of Gαq/phospholipase signaling [1]: defective at activating Gαq/phospholipase signaling
^TMRPTHrP (1‐36): Tetramethyl‐rhodamine (TMR)‐labeled version of PTHrP, TMR attached to Lys13 | induced ligand‐PTH1R internalization |  | 
CC[C@H](C)[C@H](NC(=O)[C@H](CO)NC(=O)[C@H](CCCCN)NC(=O)CNC(=O)[C@H](CCCCN)NC(=O)[C@H](CC(=O)O)NC(=O)[C@H](Cc1cnc[nH]1)NC(=O)[C@H](CC(C)C)NC(=O)[C@H](CC(C)C)NC(=O)[C@H](CCC(N)=O)NC(=O)[C@H](Cc1cnc[nH]1)NC(=O)[C@H](CCC(=O)O)NC(=O)[C@H](CO)NC(=O)[C@@H](NC(=O)[C@H](C)N)C(C)C)C(=O)N[C@@H](CCC(N)=O)C(=O)N[C@@H](CC(=O)O)C(=O)N[C@@H](CC(C)C)C(=O)N[C@@H](CCCNC(=N)N)C(=O)N[C@@H](CCCNC(=N)N)C(=O)N[C@@H](CCCNC(=N)N)C(=O)N[C@@H](CCC(=O)O)C(=O)N[C@@H](CC(C)C)C(=O)N[C@@H](CC(C)C)C(=O)N[C@@H](CCC(=O)O)C(=O)N[C@@H](CCCCN)C(=O)N[C@@H](CC(C)C)C(=O)N[C@@H](CC(C)C)C(=O)NC(C)(C)C(=O)N[C@@H](CCCCN)C(=O)N[C@@H](CC(C)C)C(=O)N[C@@H](Cc1cnc[nH]1)C(=O)N[C@H](C(=O)N[C@@H](C)C(N)=O)[C@@H](C)O [abaloparatide] |  | 0.589 | 
AVAEIQLMHQRAKWIQDARRRAFLHKLIAEIHTAEI [LA‐PTH] |  | 0.562 | 
^TMRPTHc35 (1‐35): Tetramethyl‐rhodamine (TMR)‐labeled version of PTH, TMR attached to Lys13 (SVSEIQLMHNLGK(TMR)HLNSMERVEWLRKKLQDVHNFV; UniProt P01270 32-66, looked up, fragment) | induced ligand‐PTH1R internalization |  | 
